The values below come from ChEMBL document CHEMBL3856195, “2,3,4-Trihydroxybenzyl-hydrazide analogues as novel potent coxsackievirus B3 3C protease inhibitors” (Eur J Med Chem, 2016).

The structures appear in SMILES notation. pIC50, pKi: −log10 of the molar value. Calls of active or inactive are those of the source. The rule behind the calls is not given here. A value given as a limit tells only on which side of the number the result lay.

Data set [1] has as its target T1, Genome polyprotein (Coxsackievirus B3 (strain Nancy), UniProt P03313). The data set is described as follows: Inhibition of recombinant Coxsackievirus B3 3C protease expressed in Escherichia coli BL21 (DE3) preincubated for 5 mins followed by addition of NMA-EALFQGPPVK-DNP-rrr-NH2 as substrate measured up to 2 hrs by FRET-based enzyme assay.
Data set [2] can be described thus: Cytotoxicity against human HeLa cells assessed as reduction in cell viability at 10 and 100 uM by CCK8 assay. Format: toxicity, cell-based. A general note: Tetrazolium dyes change colour on reduction, which living cells bring about.
The test system of data set [3] is Coxsackievirus B3. The data set is described as follows: Antiviral activity against Coxsackievirus B3 infected in human HeLa cells at 10 uM measured after 20 to 24 hrs by CCK8 assay. It is filed as functional. The settings on record: Enterovirus B.
Data set [4] deals with T1, Genome polyprotein. The data set is described as follows: Inhibition of recombinant Coxsackievirus B3 3C protease expressed in Escherichia coli BL21 (DE3) preincubated for 5 mins followed by addition of NMA-EALFQGPPVK-DNP-rrr-NH2 as substrate measured every 10 mins for 2 hrs by FRET-based enzyme assay.
A short description of data set [5]: Apparent permeability in MDCK cells at 50 uM and measured after 30 mins by LC-MS/MS analysis. The settings on record: dog. Format: ADME, cell-based, Canis lupus familiaris.
Data set [6] has as its target T1, Genome polyprotein. The data set is described as follows: Inhibition of recombinant Coxsackievirus B3 C-terminal 6His-tagged 3C protease expressed in Escherichia coli BL21 preincubated for 20 mins followed by addition of fluorogenic peptide as substrate by Cheng-Prusoff equation analysis.
The target of data set [7] is Genome polyprotein (Coxsackievirus B3 (strain Nancy)) (UniProt P03313). The data set is described as follows: Non-competitive inhibition of recombinant Coxsackievirus B3 3C protease expressed in Escherichia coli BL21 (DE3) preincubated with protein followed by addition of NMA-EALFQGPPVK-DNP-rrr-NH2 as substrate measured every 5 mins for 2 hrs by Michaelis-Menten plot analysis.
Chain of Genome polyprotein (Coxsackievirus B3 (strain Nancy)) (P03313 whole entry): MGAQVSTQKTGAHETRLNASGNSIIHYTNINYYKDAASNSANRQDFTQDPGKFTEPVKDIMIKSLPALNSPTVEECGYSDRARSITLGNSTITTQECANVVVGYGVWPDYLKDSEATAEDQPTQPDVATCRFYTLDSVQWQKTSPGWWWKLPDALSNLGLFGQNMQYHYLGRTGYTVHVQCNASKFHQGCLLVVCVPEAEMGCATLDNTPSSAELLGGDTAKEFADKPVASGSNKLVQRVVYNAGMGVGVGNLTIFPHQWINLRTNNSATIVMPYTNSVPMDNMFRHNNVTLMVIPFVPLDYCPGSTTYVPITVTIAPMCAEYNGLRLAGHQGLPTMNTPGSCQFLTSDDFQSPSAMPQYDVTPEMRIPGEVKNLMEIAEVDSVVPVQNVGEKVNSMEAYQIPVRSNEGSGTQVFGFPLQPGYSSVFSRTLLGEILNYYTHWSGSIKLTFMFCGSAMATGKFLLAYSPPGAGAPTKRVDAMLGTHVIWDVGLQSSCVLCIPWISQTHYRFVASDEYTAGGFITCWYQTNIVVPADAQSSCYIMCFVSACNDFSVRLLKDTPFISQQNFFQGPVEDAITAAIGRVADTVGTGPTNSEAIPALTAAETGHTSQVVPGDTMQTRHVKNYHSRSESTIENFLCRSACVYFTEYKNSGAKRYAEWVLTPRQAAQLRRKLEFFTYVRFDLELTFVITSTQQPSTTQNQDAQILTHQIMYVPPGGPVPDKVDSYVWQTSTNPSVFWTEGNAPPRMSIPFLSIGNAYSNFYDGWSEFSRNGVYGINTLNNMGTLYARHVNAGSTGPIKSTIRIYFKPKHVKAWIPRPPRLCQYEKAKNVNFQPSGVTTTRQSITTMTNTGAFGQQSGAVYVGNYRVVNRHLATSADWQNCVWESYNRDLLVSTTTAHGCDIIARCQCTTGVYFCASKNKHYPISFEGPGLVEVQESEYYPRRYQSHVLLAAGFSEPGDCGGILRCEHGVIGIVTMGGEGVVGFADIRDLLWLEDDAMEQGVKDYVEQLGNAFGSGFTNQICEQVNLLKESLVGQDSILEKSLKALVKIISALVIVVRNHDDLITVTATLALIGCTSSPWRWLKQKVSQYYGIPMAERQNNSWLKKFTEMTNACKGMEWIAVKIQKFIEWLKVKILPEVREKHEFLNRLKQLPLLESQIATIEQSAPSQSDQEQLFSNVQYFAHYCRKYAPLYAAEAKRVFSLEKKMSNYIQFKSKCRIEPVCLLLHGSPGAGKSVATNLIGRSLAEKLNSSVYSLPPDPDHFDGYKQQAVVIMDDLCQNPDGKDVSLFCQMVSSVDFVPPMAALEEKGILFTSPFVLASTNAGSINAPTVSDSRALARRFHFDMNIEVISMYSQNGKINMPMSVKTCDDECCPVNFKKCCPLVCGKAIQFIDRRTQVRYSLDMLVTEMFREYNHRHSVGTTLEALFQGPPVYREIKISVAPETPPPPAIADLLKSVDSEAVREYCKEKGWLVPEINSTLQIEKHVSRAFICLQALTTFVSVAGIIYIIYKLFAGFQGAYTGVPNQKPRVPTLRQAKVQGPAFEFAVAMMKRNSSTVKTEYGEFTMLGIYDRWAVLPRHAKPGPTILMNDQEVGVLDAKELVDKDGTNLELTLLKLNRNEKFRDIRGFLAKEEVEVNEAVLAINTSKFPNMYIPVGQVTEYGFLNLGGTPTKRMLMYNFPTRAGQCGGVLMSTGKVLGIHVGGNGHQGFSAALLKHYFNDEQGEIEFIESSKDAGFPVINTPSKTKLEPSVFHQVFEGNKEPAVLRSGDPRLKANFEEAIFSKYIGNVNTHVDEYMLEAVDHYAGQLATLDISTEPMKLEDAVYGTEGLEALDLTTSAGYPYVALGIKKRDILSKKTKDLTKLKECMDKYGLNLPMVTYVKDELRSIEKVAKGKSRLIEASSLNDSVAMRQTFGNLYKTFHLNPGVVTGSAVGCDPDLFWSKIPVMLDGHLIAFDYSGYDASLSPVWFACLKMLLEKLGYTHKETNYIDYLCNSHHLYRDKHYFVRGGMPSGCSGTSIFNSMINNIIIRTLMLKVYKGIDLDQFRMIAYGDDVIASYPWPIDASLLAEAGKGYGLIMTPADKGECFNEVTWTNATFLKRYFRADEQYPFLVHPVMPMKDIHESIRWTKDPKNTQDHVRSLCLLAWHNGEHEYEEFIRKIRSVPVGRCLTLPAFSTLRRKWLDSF

Data set [8] has as its target T1, Genome polyprotein. The data set is described as follows: Competitive inhibition of recombinant Coxsackievirus B3 3C protease expressed in Escherichia coli BL21 (DE3) preincubated with protein followed by addition of NMA-EALFQGPPVK-DNP-rrr-NH2 as substrate measured every 5 mins for 2 hrs by Dixon plot analysis.
The target in data set [9] is Genome polyprotein (Coxsackievirus B3 (strain Nancy)) (UniProt P03313). The data set is described as follows: Mixed-type inhibition of recombinant Coxsackievirus B3 3C protease expressed in Escherichia coli BL21 (DE3) preincubated with protein followed by addition of NMA-EALFQGPPVK-DNP-rrr-NH2 as substrate measured every 5 mins for 2 hrs by Lineweaver-Burk plot analysis.

T1 sequence (P03313 1541-1723 limits assumed): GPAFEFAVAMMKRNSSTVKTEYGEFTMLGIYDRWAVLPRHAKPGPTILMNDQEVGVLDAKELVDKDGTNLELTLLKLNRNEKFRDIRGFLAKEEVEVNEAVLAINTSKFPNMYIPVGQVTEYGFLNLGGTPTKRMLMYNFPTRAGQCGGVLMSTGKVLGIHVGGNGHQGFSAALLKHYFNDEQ

On to `CC(C)(C)OC(=O)NC(Cc1ccc(O)cc1)C(=O)NNCc1ccc(O)c(O)c1O` (stereo not drawn), for which, in data set [1], the pIC50 is 6.57.

As to `CCCCC(=O)Oc1c(O)ccc(CNNC(=O)CCCCc2ccc(O)cc2)c1O`, the negative-log IC50 (pIC50) in [1] was 6.06. Further, the Activity entry in data set [2] is given as “Non-Toxic”. This compound came in with an inhibition at 10 µM in [3] of 43%.

Turning to `O=C(N/N=C/c1ccccc1O)c1ccccc1` [SALICYLALDEHYDE BENZOYL HYDRAZONE], in [1], the pIC50 was less than 4.30.

Regarding `O=C(Cc1ccc(F)cc1)N/N=C/c1ccc(O)c(O)c1O`, the pIC50 in data set [1] is 6.18.

For `NC(CO)C(=O)N/N=C/c1ccc(O)c(O)c1O` (stereo not drawn), the pIC50 in [4] was 5.57.

Turning to `O=C(NNCc1ccc(O)c(O)c1O)c1ccc(F)cc1`, in data set [1], the pIC50 was 6.19.

Turning to `O=C(CCCCc1ccc(F)cc1)N/N=C/c1ccc(O)c(O)c1O`, the pIC50 in data set [1] was 6.33.

For `O=C(N/N=C/c1ccc(O)c(O)c1O)c1ccc(Br)cc1`, in data set [1], the pIC50 was 6.34.

For the compound `CCCCC(=O)Oc1c(O)ccc(CNNC(=O)c2ccc(O)cc2)c1O`, in data set [1], the pIC50 is 5.99. In addition, in data set [3], the inhibition at 10 µM was determined as 38%.

Consider `O=C(Cc1ccc(F)cc1)NNCc1ccc(O)c(O)c1O`, for which the negative logarithm of the IC50 (pIC50) in data set [1] was 6.47.

For the compound `Cc1cc(C(=O)N[C@H](C(=O)N[C@@H](Cc2ccc(F)cc2)C(=O)N/N=C/c2ccc(O)c(O)c2O)C(C)C)no1`, in [1], the pIC50 is 6.21.

With `O=C(Cc1ccccc1)N/N=C/c1ccc(O)c(O)c1O`, the pIC50 in data set [1] is 6.12.

`CS(=O)(=O)c1ccc(C(=O)N/N=C/c2ccc(O)c(O)c2O)cc1`: the pIC50 in data set [1] is 6.05.

In the case of `O=C(N/N=C/c1ccc(O)c(O)c1)c1ccccc1`, the pIC50 in [1] was less than 4.30.

On to `O=C(NNCc1ccc(O)c(O)c1O)c1ccc(Cl)cc1`, for which, in data set [1], the pIC50 is 6.37.

Take `O=C(CCc1ccc(O)cc1)NNCc1ccc(O)c(O)c1O`: the pIC50 in [1] was 7.10.

As to `CCCCC(=O)Oc1c(O)ccc(/C=N/NC(=O)CCCCc2ccc(O)cc2)c1O`, the pIC50 in data set [1] is 6.01. Also, the Activity entry in data set [2] was “Non-Toxic”. The same compound came in with an inhibition at 10 µM in [3] of 62%. In addition, the apparent permeability (Papp) at 0.5 h, 50 µM in data set [5] came out at 250 nm/s.

In the case of `O=C(N/N=C/c1ccc(O)c(O)c1O)c1ccc(O)cc1`, in data set [1], the pIC50 was 6.49. In [2], the Activity entry is recorded as “Non-Toxic”.

As for `O=C(N/N=C/c1cc(O)cc(O)c1)c1ccccc1`, in data set [1], the pIC50 is less than 4.30.

On to `O=C(Cc1ccccc1)NNCc1ccc(O)c(O)c1O`, for which, in [1], the pIC50 is 6.39.

`O=C(CCc1ccccc1)NNCc1ccc(O)c(O)c1O`: the negative logarithm of the IC50 (pIC50) in [1] is 6.49.

On to `O=C(NNCc1ccc(O)c(O)c1O)c1ccc(Br)cc1`, for which, in [1], the negative logarithm of the IC50 (pIC50) was 6.68.

Take `O=C(N/N=C/c1cccc(O)c1O)c1ccccc1`: the pIC50 in data set [1] was less than 4.30.

In the case of `O=C(NNCc1c(O)cc(O)cc1O)c1ccccc1`, the negative logarithm of the IC50 (pIC50) in data set [1] was 6.11.

As for `O=C(N/N=C/c1ccc(O)cc1O)c1ccccc1`, the pIC50 in data set [1] was less than 4.30.

Take `O=C(CCCCc1ccccc1)NNCc1ccc(O)c(O)c1O`: the negative-log IC50 (pIC50) in data set [1] is 6.72.

Turning to `O=C(N/N=C/c1ccc(O)c(O)c1O)c1ccccc1`, the pIC50 in data set [1] is 6.01.

As to `CC(C)(C)OC(=O)NC(Cc1ccc(O)cc1)C(=O)N/N=C/c1ccc(O)c(O)c1O` (stereo not drawn), the pIC50 in data set [1] is 6.27.

For the compound `O=C(CCCc1ccccc1)NNCc1ccc(O)c(O)c1O`, the pIC50 in data set [1] was 6.47.

In the case of `O=C(CCc1ccc(F)cc1)N/N=C/c1ccc(O)c(O)c1O`, the pIC50 in data set [1] was 6.24.

As to `O=C(N/N=C/c1c(O)cc(O)cc1O)c1ccccc1`, the pIC50 in data set [1] was 5.97.

Take `Cc1cc(C(=O)N[C@H](C(=O)N[C@@H](Cc2ccc(F)cc2)C(=O)NNCc2ccc(O)c(O)c2O)C(C)C)no1`: in [1], the pIC50 is 6.64.

`O=C(CCc1ccc(O)cc1)N/N=C/c1ccc(O)c(O)c1O`: the pIC50 in data set [1] is 6.92.

In the case of `O=C(N/N=C/c1ccc(O)c(O)c1O)c1ccc(F)cc1`, the pIC50 in data set [1] is 6.06.

Regarding `O=C(CCc1ccccc1)N/N=C/c1ccc(O)c(O)c1O`, the pIC50 in data set [1] was 6.16.

Regarding `CS(=O)(=O)c1ccc(C(=O)NNCc2ccc(O)c(O)c2O)cc1`, the pIC50 in data set [1] is 6.11.

On to `O=C(CCc1ccc(F)cc1)NNCc1ccc(O)c(O)c1O`, for which the pIC50 in data set [1] is 6.70.

Turning to `O=C(NNCc1ccc(O)c(O)c1O)c1ccccc1`, in data set [1], the negative logarithm of the IC50 (pIC50) is 6.19.

With `CC(=O)/C=C/[C@H](C[C@@H]1CNCC1=O)NC(=O)[C@H](CC(C)C)NC(=O)[C@H](CNC(=O)C(C)(C)C)NC(=O)OCc1ccccc1`, the pKi in data set [6] was 6.10.

Take `O=C(CCCc1ccccc1)N/N=C/c1ccc(O)c(O)c1O`: the pIC50 in data set [1] was 6.15.

Consider `O=C(N/N=C/c1ccc(O)cc1)c1ccccc1`, for which, in data set [1], the pIC50 is less than 4.30.

For the compound `O=C(CCCCc1ccc(F)cc1)NNCc1ccc(O)c(O)c1O`, in data set [1], the pIC50 was 6.64.

Regarding `O=C(N/N=C/c1cc(O)ccc1O)c1ccccc1`, the pIC50 in [1] is 5.26.

In the case of `CC(C)(C)OC(=O)NC(Cc1ccc(F)cc1)C(=O)NNCc1ccc(O)c(O)c1O` (stereo not drawn), the pIC50 in [1] was 6.11.

As for `CS(=O)(=O)c1ccc(/C=N/NC(=O)c2ccccc2)cc1`, the pIC50 in data set [1] was less than 4.30.

Turning to `O=C(CCCc1ccc(F)cc1)N/N=C/c1ccc(O)c(O)c1O`, the pIC50 in data set [1] is 6.19.

With `O=C(CCCc1ccc(O)cc1)N/N=C/c1ccc(O)c(O)c1O`, the pIC50 in data set [1] was 6.80.

In the case of `O=C(Cc1ccc(O)cc1)N/N=C/c1ccc(O)c(O)c1O`, the negative logarithm of the IC50 (pIC50) in [1] was 6.74.

Regarding `O=C(CCCCc1ccc(O)cc1)N/N=C/c1ccc(O)c(O)c1O`, in data set [1], the pIC50 was 6.96. Moreover, in data set [2], the Activity entry was “Non-Toxic”. Besides, the Papp at 0.5 h, 50 µM in [5] amounted to 110 nm/s.

As to `O=C(N/N=C/c1cccc(O)c1)c1ccccc1`, the pIC50 in data set [1] is less than 4.30.

`O=C(Cc1ccc(O)cc1)NNCc1ccc(O)c(O)c1O`: the negative logarithm of the IC50 (pIC50) in data set [1] was 6.96.

For `CCCCC(=O)Oc1c(O)ccc(/C=N/NC(=O)c2ccc(O)cc2)c1O`, in data set [1], the negative-log IC50 (pIC50) is 5.92. The Activity result in [2] is recorded as “Non-Toxic”. This compound gave an inhibition at 10 µM in [3] of 42%.

Take `O=C(CCCCc1ccc(O)cc1)NNCc1ccc(O)c(O)c1O`: the pIC50 in data set [1] is 7.15. The Activity result in data set [2] is reported as “Non-Toxic”. Moreover, the inhibition entry in data set [7] is “Dose-dependent effect”. Also, the pKi in data set [8] was 6.49. Further, the inhibition entry in [9] is “Active”.

As for `O=C(CCCc1ccc(O)cc1)NNCc1ccc(O)c(O)c1O`, the pIC50 in [1] was 7.00.

On to `O=C(NNCc1ccc(O)c(O)c1O)c1ccc(O)cc1`, for which the pIC50 in [1] is 6.77. Moreover, in data set [2], the Activity entry is “Non-Toxic”.

For `O=C(N/N=C/c1ccccc1)c1ccccc1`, in data set [1], the negative logarithm of the IC50 (pIC50) was less than 4.30.

Take `CC(C)(C)OC(=O)NC(Cc1ccc(F)cc1)C(=O)N/N=C/c1ccc(O)c(O)c1O` (stereo not drawn): the pIC50 in [1] is 6.05.

Turning to `NC(CO)C(=O)NNCc1ccc(O)c(O)c1O` (stereo not drawn) [BENSERAZIDE], in data set [4], the pIC50 is 5.62.

As to `O=C(CCCc1ccc(F)cc1)NNCc1ccc(O)c(O)c1O`, the pIC50 in data set [1] is 6.40.

As to `O=C(N/N=C/c1ccc(O)c(O)c1O)c1ccc(Cl)cc1`, the pIC50 in data set [1] is 6.23.

Take `O=C(CCCCc1ccccc1)N/N=C/c1ccc(O)c(O)c1O`: in data set [1], the pIC50 is 6.36.

As for `CS(=O)(=O)c1cccc(/C=N/NC(=O)c2ccccc2)c1`, in data set [1], the pIC50 was less than 4.30.

Usually pIC50 stands for −log10 of the IC50, conventionally taken in molar units. Broadly, the inhibition is the share of the control response that was lost under treatment. As usually defined, the Papp is the rate of passage across a membrane or cell layer, normalised by area and donor concentration. Usually pKi stands for −log10 of the Ki, conventionally taken in molar units.
